This passage reports IC50 results from ChEMBL document CHEMBL3351916, “Synthesis and cytotoxic evaluation of novel ester-triazole-linked triterpenoid-AZT conjugates” (Bioorg Med Chem Lett, 2014).

One experiment has as its system KB. The experiment is described as follows: Cytotoxicity against human KB cells. In kind it is functional, cell-based.
The test system of another experiment is HepG2. The experiment is described as follows: Cytotoxicity against human HepG2 cells. In kind it is functional, cell-based.

With `C=C(C)[C@@H]1CC[C@]2(C(=O)O)CC[C@]3(C)[C@H](CC[C@@H]4[C@@]5(C)CC[C@@H](O)[C@@](C)(C(=O)O)[C@@H]5CC[C@]43C)[C@@H]12`, the IC50 turned out to be 110 µM in the experiment with KB and 223 µM in the experiment with HepG2.
Taken in the same sequence, the figures for `C#CCOC(=O)[C@]12CC[C@@H](C(=C)C)[C@@H]1[C@H]1CC[C@@H]3[C@@]4(C)CC[C@H](O)C(C)(C)[C@@H]4CC[C@@]3(C)[C@]1(C)CC2` were more than 259 µM and 114 µM.
`C=C(C)[C@@H]1CC[C@]2(C(=O)O)CC[C@]3(C)[C@H](CC[C@@H]4[C@@]5(C)CCC(=O)[C@H](C)[C@@H]5CC[C@]43C)[C@@H]12`: the IC50 in the experiment with KB was 7.7 µM; with HepG2 it was 11.2 µM.
Taken in the same sequence, the figures for `C#CCOC(=O)[C@]12CC[C@@H](C(=C)C)[C@@H]1[C@H]1CC[C@@H]3[C@@]4(C)CC[C@H](OC(=O)CCC(=O)O)C(C)(C)[C@@H]4CC[C@@]3(C)[C@]1(C)CC2` were 22.2 µM and 49.9 µM.
Taken in the same sequence, the figures for `C#CCOC(=O)[C@]12CC[C@@H](C(=C)C)[C@@H]1[C@H]1CC[C@@H]3[C@@]4(C)CC[C@H](OC(=O)CCCC(=O)O)C(C)(C)[C@@H]4CC[C@@]3(C)[C@]1(C)CC2` were 28.7 µM and 19.9 µM.
On the same counts, the results for `C#CCOC(=O)[C@]12CC[C@@H](C(=C)C)[C@@H]1[C@H]1CC[C@@H]3[C@@]4(C)CC[C@H](OC(=O)CC(C)CC(=O)O)C(C)(C)[C@@H]4CC[C@@]3(C)[C@]1(C)CC2` (stereo partly specified) are 12.5 µM and 129 µM.
Turning to `C=C(C)[C@@H]1CC[C@]2(C(=O)OCc3cn([C@H]4C[C@H](n5cc(C)c(=O)[nH]c5=O)O[C@@H]4CO)nn3)CC[C@]3(C)[C@H](CC[C@@H]4[C@@]5(C)CC[C@H](O)C(C)(C)[C@@H]5CC[C@]43C)[C@@H]12`, the IC50 in the experiment with KB is 5.9 µM; in the experiment on HepG2, 7 µM.
Taken in the same sequence, the figures for `C=C(C)[C@@H]1CC[C@]2(C(=O)OCc3cn([C@H]4C[C@H](n5cc(C)c(=O)[nH]c5=O)O[C@@H]4CO)nn3)CC[C@]3(C)[C@H](CC[C@@H]4[C@@]5(C)CC[C@H](OC(=O)CCC(=O)O)C(C)(C)[C@@H]5CC[C@]43C)[C@@H]12` were 24.7 µM and 20.6 µM.
On the same counts, the results for `C=C(C)[C@@H]1CC[C@]2(C(=O)OCc3cn([C@H]4C[C@H](n5cc(C)c(=O)[nH]c5=O)O[C@@H]4CO)nn3)CC[C@]3(C)[C@H](CC[C@@H]4[C@@]5(C)CC[C@H](OC(=O)CCCC(=O)O)C(C)(C)[C@@H]5CC[C@]43C)[C@@H]12` are 20.4 µM and 18.3 µM.
Consider `C=C(C)[C@@H]1CC[C@]2(C(=O)OCc3cn([C@H]4C[C@H](n5cc(C)c(=O)[nH]c5=O)O[C@@H]4CO)nn3)CC[C@]3(C)[C@H](CC[C@@H]4[C@@]5(C)CC[C@H](OC(=O)CC(C)CC(=O)O)C(C)(C)[C@@H]5CC[C@]43C)[C@@H]12` (stereo partly specified), for which the half-inhibitory concentration (IC50) came out at 111 µM in the experiment on KB and 35.2 µM in the experiment with HepG2.
Taken in the same sequence, the figures for `Cc1cn([C@H]2C[C@H](n3cc(COC(=O)[C@]45CC[C@@H](C)[C@H](C)[C@H]4C4=CC[C@@H]6[C@@]7(C)CC[C@H](O)C(C)(C)[C@@H]7CC[C@@]6(C)[C@]4(C)CC5)nn3)[C@@H](CO)O2)c(=O)[nH]c1=O` were 28.5 µM and 34 µM.
Turning to `Cc1cn([C@H]2C[C@H](n3cc(COC(=O)[C@]45CCC(C)(C)C[C@H]4C4=CC[C@@H]6[C@@]7(C)CC[C@H](O)C(C)(C)[C@@H]7CC[C@@]6(C)[C@]4(C)CC5)nn3)[C@@H](CO)O2)c(=O)[nH]c1=O`, the IC50 with KB came out at 6.3 µM; in the experiment with HepG2 it was 7.4 µM.
On the same counts, the results for `C#CCOC(=O)[C@]12CC[C@@H](C(=C)C)[C@@H]1[C@H]1CC[C@@H]3[C@@]4(C)CCC(=O)[C@H](C)[C@@H]4CC[C@@]3(C)[C@]1(C)CC2` are more than 267 µM and more than 267 µM.
`C#CCOC(=O)[C@]12CC[C@@H](C(=C)C)[C@@H]1[C@H]1CC(=O)[C@@H]3[C@@]4(C)CCC(=O)[C@H](C)[C@@H]4CC[C@@]3(C)[C@]1(C)CC2`: the IC50 was determined as 63.9 µM in the experiment with KB and 59.5 µM with HepG2.
For the compound `C=C(C)[C@@H]1CC[C@]2(C(=O)OCc3cn([C@H]4C[C@H](n5cc(C)c(=O)[nH]c5=O)O[C@@H]4CO)nn3)CC[C@]3(C)[C@H](CC[C@@H]4[C@@]5(C)CCC(=O)[C@H](C)[C@@H]5CC[C@]43C)[C@@H]12`, the IC50 in the experiment on KB and in the experiment on HepG2 was more than 172 µM throughout.
`C=C(C)[C@@H]1CC[C@]2(C(=O)OCc3cn([C@H]4C[C@H](n5cc(C)c(=O)[nH]c5=O)O[C@@H]4CO)nn3)CC[C@]3(C)[C@H](CC(=O)[C@@H]4[C@@]5(C)CCC(=O)[C@H](C)[C@@H]5CC[C@]43C)[C@@H]12`: the IC50 in the experiment with KB and with HepG2 was more than 168 µM each time.
As for `C#CCOC(=O)[C@]12CC[C@@H](C(=C)C)[C@@H]1[C@H]1CC[C@@H]3[C@@]4(C)CC[C@H](O)[C@H](C)[C@@H]4CC[C@@]3(C)[C@]1(C)CC2`, the IC50 in the experiment on KB is 40 µM; in the experiment with HepG2 it was 133 µM.
Taken in the same sequence, the figures for `C#CCOC(=O)[C@]12CC[C@@H](C(=C)C)[C@@H]1[C@H]1CC[C@@H]3[C@@]4(C)CC[C@H](OC(=O)CCC(=O)O)[C@H](C)[C@@H]4CC[C@@]3(C)[C@]1(C)CC2` were 10.6 µM and 11.4 µM.
As to `C#CCOC(=O)[C@]12CC[C@@H](C(=C)C)[C@@H]1[C@H]1CC[C@@H]3[C@@]4(C)CC[C@H](OCCCC(=O)O)[C@H](C)[C@@H]4CC[C@@]3(C)[C@]1(C)CC2`, the IC50 with KB was determined as 9.9 µM; in the experiment with HepG2, 27.3 µM.
On the same counts, the results for `C=C(C)[C@@H]1CC[C@]2(C(=O)OCc3cn([C@H]4C[C@H](n5cc(C)c(=O)[nH]c5=O)O[C@@H]4CO)nn3)CC[C@]3(C)[C@H](CC[C@@H]4[C@@]5(C)CC[C@H](OC(=O)CCC(=O)O)[C@H](C)[C@@H]5CC[C@]43C)[C@@H]12` are 7.3 µM and 7.8 µM.
Taken in the same sequence, the figures for `C=C(C)[C@@H]1CC[C@]2(C(=O)OCc3cn([C@H]4C[C@H](n5cc(C)c(=O)[nH]c5=O)O[C@@H]4CO)nn3)CC[C@]3(C)[C@H](CC[C@@H]4[C@@]5(C)CC[C@H](OCCCC(=O)O)[C@H](C)[C@@H]5CC[C@]43C)[C@@H]12` were more than 148 µM and more than 148 µM.
On the same counts, the results for `C=C(C)[C@@H]1CC[C@]2(C(=O)OCc3cn([C@H]4C[C@H](n5cc(C)c(=O)[nH]c5=O)O[C@@H]4CO)nn3)CC[C@]3(C)[C@H](CC[C@@H]4[C@@]5(C)CC[C@H](O)[C@H](C)[C@@H]5CC[C@]43C)[C@@H]12` are 34 µM and 7.3 µM.
Regarding `C=C(C)[C@@H]1CC[C@]2(C(=O)O)CC[C@]3(C)[C@H](C[C@@H](O)[C@@H]4[C@@]5(C)CCC(=O)[C@@H](C)[C@@H]5CC[C@]43C)[C@@H]12`, the figures for the IC50 with KB and with HepG2 were 46.8 µM and 58 µM, respectively.
Regarding `C#CCOC(=O)[C@]12CC[C@@H](C(=C)C)[C@@H]1[C@H]1C[C@@H](O)[C@@H]3[C@@]4(C)CCC(=O)[C@@H](C)[C@@H]4CC[C@@]3(C)[C@]1(C)CC2`, the figures for the 50% inhibitory concentration (IC50) in the experiment with KB and in the experiment on HepG2 were 21.9 µM and 39.6 µM, respectively.
As to `C=C(C)[C@@H]1CC[C@]2(C(=O)OCc3cn([C@H]4C[C@H](n5cc(C)c(=O)[nH]c5=O)O[C@@H]4CO)nn3)CC[C@]3(C)[C@H](C[C@@H](O)[C@@H]4[C@@]5(C)CCC(=O)[C@@H](C)[C@@H]5CC[C@]43C)[C@@H]12`, the IC50 with KB amounted to 136 µM; in the experiment on HepG2 it was 8.5 µM.
Taken in the same sequence, the figures for `C=C(C)[C@@H]1CC[C@]2(C(=O)O)CC[C@]3(C)[C@H](C[C@@H](O)[C@@H]4[C@@]5(C)CC[C@@H](O)[C@@](C)(C(=O)O)[C@@H]5CC[C@]43C)[C@@H]12` were more than 255 µM and more than 255 µM.
On to `C#CCOC(=O)[C@]12CCC(C)(C)C[C@H]1C1=CC[C@@H]3[C@@]4(C)CC[C@H](O)C(C)(C)[C@@H]4CC[C@@]3(C)[C@]1(C)CC2` [3BETA-HYDROXY-OLEN-12-EN-28-PROPARGYLATE], for which the IC50 in the experiment with KB was 38.4 µM; with HepG2, more than 259 µM.
Consider `C#CCOC(=O)[C@]12CC[C@@H](C)[C@H](C)[C@H]1C1=CC[C@@H]3[C@@]4(C)CC[C@H](O)C(C)(C)[C@@H]4CC[C@@]3(C)[C@]1(C)CC2` [3BETA-HYDROXY-URS-12-EN-28-PROPARGYLATE], for which the IC50 in the experiment on KB worked out at 38 µM; with HepG2, 36.5 µM.
As to `C=C(C)[C@@H]1CC[C@]2(C(=O)O)CC[C@]3(C)[C@H](CC[C@@H]4[C@@]5(C)CC[C@H](O)C(C)(C)[C@@H]5CC[C@]43C)[C@@H]12` [BETULINIC ACID], the IC50 in the experiment with KB stood at 27.5 µM; in the experiment with HepG2, 23.9 µM.
In the case of `Cc1c2ccncc2c(C)c2c1[nH]c1ccccc12` [ELLIPTECINE], the IC50 with KB and in the experiment with HepG2 was 1.2 µM each time.
`CC1(C)CC[C@]2(C(=O)O)CC[C@]3(C)C(=CC[C@@H]4[C@@]5(C)CC[C@H](O)C(C)(C)[C@@H]5CC[C@]43C)[C@@H]2C1` [OLEANOLIC_ACID]: the IC50 with KB and in the experiment with HepG2 was more than 280 µM throughout.
For the compound `C[C@H]1[C@H](C)CC[C@]2(C(=O)O)CC[C@]3(C)C(=CC[C@@H]4[C@@]5(C)CC[C@H](O)C(C)(C)[C@@H]5CC[C@]43C)[C@H]12` [URSOLIC ACID], the IC50 worked out at 31.5 µM in the experiment with KB and 42.9 µM in the experiment with HepG2.
On the same counts, the results for `Cc1cn([C@H]2C[C@H](N=[N+]=[N-])[C@@H](CO)O2)c(=O)[nH]c1=O` [ZIDOVUDINE] are more than 479 µM and more than 479 µM.

Broadly, the IC50 is the concentration that gives 50% inhibition.
